According to PubChem BioAssay (NCI):
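Compound exposure: 48 hours, 5 concentrations, 96-well plates. TGI: concentration producing complete growth inhibition.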

How the values were obtained:
Assay in all cases: NCI anticancer screen, dose series, 48 h
SN12C renal = tested on: SN12C renal
UACC-62 melanoma = tested on: UACC-62 melanoma
UACC-257 melanoma = tested on: UACC-257 melanoma
CAKI-1 renal = tested on: CAKI-1 renal
ACHN renal = tested on: ACHN renal
NCI/ADR-RES ovarian = tested on: NCI/ADR-RES ovarian
MDA-MB-435 = tested on: MDA-MB-435
A549 NSCLC = tested on: A549 NSCLC
MCF7 breast = tested on: MCF7 breast
DU-145 prostate = tested on: DU-145 prostate
HCT-15 colon = tested on: HCT-15 colon
PC-3 prostate = tested on: PC-3 prostate
HT29 colon = tested on: HT29 colon
HL-60(TB) leukemia = tested on: HL-60(TB) leukemia
TK-10 renal = tested on: TK-10 renal
SNB-19 CNS = tested on: SNB-19 CNS
SW-620 colon = tested on: SW-620 colon
786-0 renal = tested on: 786-0 renal
M14 melanoma = tested on: M14 melanoma
A498 renal = tested on: A498 renal
UO-31 renal = tested on: UO-31 renal
EKVX NSCLC = tested on: EKVX NSCLC
OVCAR-5 ovarian = tested on: OVCAR-5 ovarian
HCC-2998 colon = tested on: HCC-2998 colon
CCRF-CEM leukemia = tested on: CCRF-CEM leukemia

c1cc(-c2ccc(-c3ccc(C4=NC5CCCCC5N4)cc3)o2)ccc1C1=NC2CCCCC2N1 (stereo not given)
TGI (SN12C renal): 3.03 µM
TGI (UACC-62 melanoma): 3.14 µM
TGI (UACC-257 melanoma): 3.28 µM
TGI (CAKI-1 renal): > 100 µM
TGI (ACHN renal): 5.7 µM
TGI (NCI/ADR-RES ovarian): > 100 µM
TGI (MDA-MB-435): 4.84 µM
TGI (A549 NSCLC): 3.14 µM
TGI (MCF7 breast): 2.53 µM
TGI (DU-145 prostate): 3.33 µM
TGI (HCT-15 colon): 79.4 µM
TGI (PC-3 prostate): 2.78 µM
TGI (HT29 colon): 2.89 µM
TGI (HL-60(TB) leukemia): 4.86 µM
TGI (TK-10 renal): 16.4 µM
TGI (SNB-19 CNS): 2.8 µM
TGI (SW-620 colon): > 100 µM
TGI (786-0 renal): 2.81 µM
TGI (M14 melanoma): 3.01 µM
TGI (A498 renal): 9.04 µM
TGI (UO-31 renal): 6.89 µM
TGI (EKVX NSCLC): 3.42 µM
TGI (OVCAR-5 ovarian): 4.55 µM
TGI (HCC-2998 colon): 2.56 µM
TGI (CCRF-CEM leukemia): > 100 µM
